We go through 3 molecules from US20230190811A1, “COMPOSITIONS AND METHODS FOR USE IN THE TREATMENT OF CANCER” (Poseida Therapeutics, Inc., priority 2020, published 2023).

One data set deals with relapsed/refractory MM. The settings on record: standard of care; cited from earlier work.
The test system of data set [1] is human pan T-cells with iC9 safety switch. As to the kind of experiment: iC9 safety switch test: viability of modified T cells incubated with AP1903 (7-AAD flow cytometry). In kind it is cell-based. The source says:
Human pan T-cells were nucleofected using an Amaxa 4D nucleofector with one of four piggyBac transposons. Modified T cells receiving the “mock” condition were nucleofected with an empty piggyBac transposon. Modified T cells received either a piggyBac transposon containing a therapeutic agent alone (a sequence encoding a CARTyrin) or a piggyBac transposon containing an integrated iC9 sequence and a therapeutic agent (a sequence encoding a CARTyrin). To test the iC9 safety switch, each of the four modified T cells were incubated for 24 hours with 0, 0.1 nM, 1 nM, 10 nM, 100 nM or 1000 nM AP1903 (an induction agent for […]). Viability was assessed by flow cytometry using 7-aminoactinomycin D (7-AAD), a fluorescent intercalator, as a marker for cells undergoing apoptosis.

In another data set the test system is cells. The following applies: cited from earlier work.
Details of data set [2]: plasma level as % of maximal concentration: dose or concentration left out as unconfirmed. The following applies: cited from earlier work.
A short description of data set [3]: GLP repeat dose intravenous toxicity study of rimiducid in rats. The following applies: rat, in vivo. The source says:
In vitro and in vivo studies have been conducted by Poseida with rimiducid and the iC9-based safety switch-containing CAR-T cell product P-BCMA-101 with similar results. A GLP repeat dose intravenous toxicity study in rats has recently been conducted by Poseida. […] (see Rimiducid Investigator's Brochure for further detail).

Data set [4] concerns T cells carrying an iC9-based safety switch gene. The following applies: cited from earlier work.
The target of data set [5] is T1, B-cell maturation antigen (BCMA), human, expressed on cells (human, UniProt Q02223 1-184).
T1 construct: whole, on cells; also called Tumor necrosis factor receptor superfamily member 17 (TNFRSF17)
T1 sequence (looked up): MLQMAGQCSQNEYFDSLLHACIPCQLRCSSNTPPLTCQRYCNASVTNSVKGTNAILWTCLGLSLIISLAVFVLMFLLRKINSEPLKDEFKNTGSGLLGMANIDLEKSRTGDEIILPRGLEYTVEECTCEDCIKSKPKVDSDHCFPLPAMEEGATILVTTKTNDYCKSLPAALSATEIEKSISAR
As to the kind of experiment: screen of 4300+ human proteins, each individually expressed in human HEK293 cells. The text has this:
The Centyrin-Fc fusion protein was screened for binding against 4300+ human proteins. The vast majority of these human proteins represent cell surface membrane proteins, each individually expressed in human HEK293 cells.

Where two headings read alike, the source gives them in different places.

“daratumumab: recently approved standard of care agent (mAb) for multiple myeloma”: the response rate in the data set on relapsed/refractory MM was not above 30%.
As to `CC[C@H](C(=O)N1CCCC[C@H]1C(=O)O[C@H](CCc1ccc(OC)c(OC)c1)c1cccc(OCC(=O)NCCNC(=O)COc2cccc([C@@H](CCc3ccc(OC)c(OC)c3)OC(=O)[C@@H]3CCCCN3C(=O)[C@@H](CC)c3cc(OC)c(OC)c(OC)c3)c2)c1)c1cc(OC)c(OC)c(OC)c1` (relative stereo) [AP1903, 2-Piperidinecarboxylic acid, 1-[(2S)-1-oxo-2-(3,4,5-trimethoxyphenyl)butyl]-, 1,2-ethanediylbis[imino(2-oxo-2,1-ethanediyl)oxy-3,1-phenylene[(1R)-3-(3,4-dimethoxyphenyl)propylidene]]ester, [2S-[1(R*),2R*[S*[S*[1(R*),2R*]]]]]-(9C1)], in data set [1] (cells containing iC9 construct, 24 hours incubation), the “lowest concentration at which apoptosis is induced” value is given as not above 0.1 nM. Besides, the “shift of cell population to apoptotic quadrant with increasing induction agent” value in data set [1] (cells lacking the iC9 construct (CARTyrin only)) is on record as “not observed”. Also, the “amount needed in vitro for effective signaling of cells” value with cells was 10 to 100 nM. Further, the “plasma levels in relation to dose” value in data set [2] (0.01-1.0 mg/kg) was “directly proportional to dose”. For the same molecule, the figures for the “plasma level as % of maximal concentration” value in data set [2] (2 hours post-dose), in data set [2] (10 hours post-dose) and in data set [2] were approximately 7%, approximately 1% and “approximately 18%”, respectively. Also, the well-tolerated doses entry in data set [2] (Phase I study) is given as “up to 1 mg/kg”. The safety and tolerability entry in data set [2] (all dose levels 0.01-1.0 mg/kg) was “safe and well tolerated at all dose levels”. Further, the “mean Cmax” value in data set [2] (single dose infused IV over 2 hours, 0.01-1.0 mg/kg dose range) is 10 to 1275 ng/mL. In addition, the toxic effect result in data set [3] is “No noticeable toxic effect”. In addition, the NOAEL in data set [3] (repeated (three times) intravenous administration) was more than 15 mg/kg. Also, in data set [4] (0.4 mg/kg 2-hour infusion, within 30 minutes following infusion), the “modified T cells eliminated” value is on record as 90%. Also, the GVHD outcome in data set [4] (0.4 mg/kg) is given as “GVHD completely resolved”. In data set [4] (clinical studies published to date), the adverse events entry was “no significant adverse events”. Also, the “further depletion of modified T cells” value in data set [4] (during the next 24 hours) is on record as “further log depletion”. Besides, the pharmacokinetics result in data set [4] (human, in vivo) was “consistent and linear pharmacokinetics”. The toxicity entry in data set [4] (within and above the effective dose range (0.01-1.0 mg/kg)) was “effectively no toxicity”.

B1: Centyrin-Fc fusion protein (the Centyrin from P-BCMA-101 fused to Fc) (Fc fusion)
chain: MLPAPKNLVVSRITEDSARLSWTAPDAAFDSFPIRYIETLIWGEAIWLDVPGSERSYDLTGLKPGTEYAVVITGVKGGRFSSPLVASFTT
notes: not shown: Fc part, any linker and the order of the parts are not described
In the case of B1, the binding result in data set [5] is on record as “binds”.
